The values below come from US8754242B2, “Herbicides” (Syngenta Crop Protection LLC, priority 2007, dated 2014).

Format in all cases: in vivo
Experiment [1] relates to Alopecurus myosuroides (ALOMY). Nature of the experiment: Test Example 1 pre-emergence herbicidal activity. As to conditions: Alopecurus myosuroides, 480 h, rate 250 g/ha, evaluated 20 days later, read-out: Pre-emergence activity ALOMY (100=total damage to plant; 0=no damage to plant). The method in brief:
(§1)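 Sow in pots of standard soil → grow 1 day (pre-emergence) or 10 days (post-emergence) in glasshouse → spray aqueous formulated compound → grow on under optimum conditions → score damage 0–100 at day 20 (pre) or day 15 (post).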

Experiment [2] concerns Avena fatua (AVEFA). Nature of the experiment: Test Example 1 pre-emergence herbicidal activity. Conditions: rate 250 g/ha, evaluated 20 days later; for pest or weed control at 250 g/ha: Avena fatua, 480 h, read-out: Pre-emergence activity AVEFA (100=total damage to plant; 0=no damage to plant). In a few lines:
as §1

The test system of experiment [3] is Digitaria sanguinalis (DIGSA). Nature of the experiment: Test Example 1 pre-emergence herbicidal activity. Conditions: Digitaria sanguinalis, 480 h, rate 250 g/ha, evaluated 20 days later, read-out: Pre-emergence activity DIGSA (100=total damage to plant; 0=no damage to plant). The method in brief:
as §1

In experiment [4] the test system is Echinochloa crus-galli (ECHCG). The experiment can be described thus: Test Example 1 pre-emergence herbicidal activity. As to conditions: Echinochloa crus-galli, 480 h, rate 250 g/ha, evaluated 20 days later, read-out: Pre-emergence activity ECHCG (100=total damage to plant; 0=no damage to plant). In a few lines:
as §1

Experiment [5] deals with Lolium perenne (LOLPE). The experiment can be described thus: Test Example 1 pre-emergence herbicidal activity. Conditions: Lolium perenne, 480 h, rate 250 g/ha, evaluated 20 days later, read-out: Pre-emergence activity LOLPE (100=total damage to plant; 0=no damage to plant). The method in brief: as §1
Experiment [6] has as its system Setaria faberi (SETFA). The experiment can be described thus: Test Example 1 pre-emergence herbicidal activity. As to conditions: Setaria faberi, 480 h, rate 250 g/ha, evaluated 20 days later, read-out: Pre-emergence activity SETFA (100=total damage to plant; 0=no damage to plant). The method in brief: as §1
The subject of experiment [7] is Alopecurus myosuroides (ALOMY). Nature of the experiment: Test Example 1 post-emergence herbicidal activity. Conditions: 360 h, rate 125 g/ha, evaluated 15 days later, read-out: Post-emergence activity ALOMY (100=total damage to plant; 0=no damage to plant). In a few lines:
as §1

Experiment [8] has as its system Avena fatua (AVEFA). Nature of the experiment: Test Example 1 post-emergence herbicidal activity. As to conditions: 360 h, rate 125 g/ha, evaluated 15 days later, read-out: Post-emergence activity AVEFA (100=total damage to plant; 0=no damage to plant). The method in brief:
as §1

Experiment [9] deals with Digitaria sanguinalis (DIGSA). The experiment can be described thus: Test Example 1 post-emergence herbicidal activity. Conditions: rate 125 g/ha, evaluated 15 days later; for pest or weed control at 125 g/ha: 360 h, read-out: Post-emergence activity DIGSA (100=total damage to plant; 0=no damage to plant). In a few lines: as §1
Experiment [10] concerns Echinochloa crus-galli (ECHCG). Nature of the experiment: Test Example 1 post-emergence herbicidal activity. As to conditions: 360 h, rate 125 g/ha, evaluated 15 days later, read-out: Post-emergence activity ECHCG (100=total damage to plant; 0=no damage to plant). In a few lines: as §1
Experiment [11] relates to Lolium perenne (LOLPE). The experiment can be described thus: Test Example 1 post-emergence herbicidal activity. As to conditions: 360 h, rate 125 g/ha, evaluated 15 days later, read-out: Post-emergence activity LOLPE (100=total damage to plant; 0=no damage to plant). In a few lines: as §1
Experiment [12] deals with Setaria faberi (SETFA). Nature of the experiment: Test Example 1 post-emergence herbicidal activity. As to conditions: 360 h, rate 125 g/ha, evaluated 15 days later, read-out: Post-emergence activity SETFA (100=total damage to plant; 0=no damage to plant). In a few lines: as §1

Consider `CCc1cc(C)cc(CC)c1C1=C(O)[C@@H]2[C@@H]3O[C@@H](C[C@H]3c3ccc(C)c(Cl)c3)[C@@H]2C1=O` [Example T151], for which the pest or weed control at 250 g/ha is 50% in experiment [1]; 20% in the experiment on Avena fatua (AVEFA) [2]; 80% in [3]; 40% in experiment [4]; 60% in the experiment on Lolium perenne (LOLPE) [5]; 20% in the experiment with Setaria faberi (SETFA) [6]. In addition, the pest or weed control at 125 g/ha is 80% in experiment [7]; 80% in the experiment on Avena fatua (AVEFA) [8]; 70% in [9]; 80% in [10]; 30% in the experiment on Lolium perenne (LOLPE) [11]; 10% in the experiment with Setaria faberi (SETFA) [12].

For the compound `CC[C@]12CC[C@H](O1)[C@@H]1C(=O)C(c3c(C)cc(C)cc3C)=C(O)[C@@H]12` [Example T52], the pest or weed control at 250 g/ha in experiment [1] turned out to be 40%; in the experiment on Avena fatua (AVEFA) [2], 30%; in experiment [3], 90%; in [4], 100%; in the experiment with Lolium perenne (LOLPE) [5], 100%; with Setaria faberi (SETFA) [6], 90%. For the same compound, the pest or weed control at 125 g/ha in experiment [7] is 60%; in the experiment with Avena fatua (AVEFA) [8], 70%; in [9], 80%; in [10] it was 100%; in the experiment with Lolium perenne (LOLPE) [11] it was 70%; in the experiment with Setaria faberi (SETFA) [12], 80%.

Turning to `CCCCCCC(=O)OC1=C(c2c(CC)cc(C)cc2CC)C(=O)[C@@H]2[C@H]1[C@H]1CC[C@@H]2O1` (racemic) [Example P20], the pest or weed control at 250 g/ha in [1] came to 100%; in the experiment with Avena fatua (AVEFA) [2], 80%; in experiment [3], 100%; in [4] it was 100%; in the experiment on Lolium perenne (LOLPE) [5], 100%; with Setaria faberi (SETFA) [6] it was 100%. Further, the pest or weed control at 125 g/ha is 100% in [7]; 100% in the experiment with Avena fatua (AVEFA) [8]; 80% in experiment [9]; 100% in experiment [10]; 100% in the experiment on Lolium perenne (LOLPE) [11]; 90% with Setaria faberi (SETFA) [12].

For the compound `Cc1cc(C)c(C2=C(O)[C@H]3[C@@H](C2=O)[C@]2(C)CC[C@@]3(C)O2)c(C)c1` [Example T6], the pest or weed control at 250 g/ha amounted to 80% in experiment [1]; 30% in the experiment on Avena fatua (AVEFA) [2]; 90% in [3]; 90% in experiment [4]; 100% in the experiment on Lolium perenne (LOLPE) [5]; 80% in the experiment with Setaria faberi (SETFA) [6]. The pest or weed control at 125 g/ha in experiment [7] stood at 80%; in the experiment on Avena fatua (AVEFA) [8], 80%; in experiment [9], 90%; in experiment [10], 90%; in the experiment on Lolium perenne (LOLPE) [11], 80%; with Setaria faberi (SETFA) [12], 80%.

Regarding `C#CC1=C[C@@H]2O[C@H]1[C@H]1C(O)=C(c3c(CC)cc(C)cc3CC)C(=O)[C@H]12` [Example T12], the pest or weed control at 250 g/ha in experiment [1] was found to be 10%; in the experiment on Avena fatua (AVEFA) [2] it was 10%; in [3], 40%; in experiment [4], 0%; in the experiment with Lolium perenne (LOLPE) [5], 40%; with Setaria faberi (SETFA) [6], 40%. Further, the pest or weed control at 125 g/ha was determined as 70% in [7]; 50% in the experiment with Avena fatua (AVEFA) [8]; 70% in experiment [9]; 70% in experiment [10]; 10% in the experiment with Lolium perenne (LOLPE) [11]; 70% with Setaria faberi (SETFA) [12].

On to `CCc1cc(C)cc(CC)c1C1=C(O)[C@@H]2[C@@H]3O[C@@H](C[C@H]3c3cccc(OC)c3)[C@@H]2C1=O` [Example T153], for which the pest or weed control at 250 g/ha amounted to 70% in [1]; 70% in the experiment on Avena fatua (AVEFA) [2]; 60% in experiment [3]; 70% in experiment [4]; 80% in the experiment on Lolium perenne (LOLPE) [5]; 70% with Setaria faberi (SETFA) [6]. Further, the pest or weed control at 125 g/ha in experiment [7] came out at 50%; in the experiment with Avena fatua (AVEFA) [8] it was 80%; in [9], 30%; in experiment [10], 70%; in the experiment on Lolium perenne (LOLPE) [11] it was 50%; in the experiment with Setaria faberi (SETFA) [12] it was 20%.

As for `CCc1cc(C)cc(CC)c1C1=C(O)[C@H]2[C@@H](C1=O)[C@@H]1CC[C@H]2O1` [Example T10], the pest or weed control at 250 g/ha in [1] came out at 80%; in experiment [3], 80%; in experiment [4], 90%; in the experiment on Lolium perenne (LOLPE) [5], 100%; with Setaria faberi (SETFA) [6], 80%. The “Pre-emergence activity AVEFA (100=total damage to plant; 0=no damage to plant)” value with Avena fatua (AVEFA) [2] was determined as 70. The pest or weed control at 125 g/ha in experiment [7] turned out to be 70%; with Avena fatua (AVEFA) [8] it was 70%; in experiment [10], 80%; in the experiment with Lolium perenne (LOLPE) [11], 80%; with Setaria faberi (SETFA) [12], 80%. The “Post-emergence activity DIGSA (100=total damage to plant; 0=no damage to plant)” value in [9] was determined as 50.

Consider `CCc1cc(C)cc(CC)c1C1=C(O)[C@H]2[C@@H](C1=O)[C@@H]1C=C(C#C[Si](C)(C)C)[C@H]2O1` (racemic) [Example T11], for which the pest or weed control at 250 g/ha in experiment [1] was 30%; in the experiment on Avena fatua (AVEFA) [2], 40%; in experiment [3], 0%; in experiment [4], 30%; with Lolium perenne (LOLPE) [5], 60%; in the experiment on Setaria faberi (SETFA) [6], 20%. Besides, the pest or weed control at 125 g/ha in experiment [7] came to 40%; with Avena fatua (AVEFA) [8] it was 20%; in experiment [9], 80%; in experiment [10], 70%; in the experiment with Lolium perenne (LOLPE) [11], 30%; with Setaria faberi (SETFA) [12], 70%.

Consider `CCc1cc(C)cc(CC)c1C1=C(O)[C@@H]2[C@@H]3O[C@@H](C[C@H]3c3cccc(C(C)=O)c3)[C@@H]2C1=O` (racemic) [Example T174], for which the pest or weed control at 250 g/ha in experiment [1] came to 30%; in the experiment on Avena fatua (AVEFA) [2], 30%; in experiment [3] it was 40%; in experiment [4], 0%; in the experiment on Lolium perenne (LOLPE) [5] it was 30%; in the experiment with Setaria faberi (SETFA) [6], 0%. Besides, the pest or weed control at 125 g/ha in experiment [7] worked out at 70%; in the experiment on Avena fatua (AVEFA) [8], 70%; in experiment [9], 70%; in [10], 80%; in the experiment with Lolium perenne (LOLPE) [11], 40%; in the experiment with Setaria faberi (SETFA) [12], 50%.

For `CSC1=C[C@@H]2O[C@@]1(C)[C@@H]1C(O)=C(c3c(C)cc(C)cc3C)C(=O)[C@H]21` (racemic) [Example T64], the pest or weed control at 250 g/ha in experiment [1] was 0%; with Avena fatua (AVEFA) [2], 0%; in experiment [3], 10%; in [4], 50%; in the experiment with Lolium perenne (LOLPE) [5], 10%; in the experiment on Setaria faberi (SETFA) [6] it was 20%. For the same compound, the pest or weed control at 125 g/ha in [7] was found to be 10%; with Avena fatua (AVEFA) [8], 0%; in [9], 60%; in [10], 50%; in the experiment on Lolium perenne (LOLPE) [11] it was 0%; with Setaria faberi (SETFA) [12], 30%.
